Reference: patent US20100056568A1, “Cycloalkylamine substituted isoquinolone and isoquinolinone derivatives” (sanofi-aventis, priority 2006, published 2010)
Counter-ions that a name gives are not always drawn.

Target: T1, human recombinant ROCK II (Homo sapiens, UniProt O75116)
T1 construct: recombinant human ROCK-II residues 11-552; His6 (N); purchased Upstate Ltd., Dundee, UK
Assay: Determination of Rho kinase inhibition (Caliper peptide phosphorylation assay)
Type: biochemical
Conditions: negative decadal logarithm of the IC50; ROCK II residues 11-552, fluorescein peptide substrate, 60 min at 32° C.; tested as salt or free base obtained in the examples
Description: To measure Rho-kinase inhibition, IC50 values were determined according to the following protocol:
Active human recombinant ROCK II (N-terminal His6-tagged recombinant human ROCK-II residues 11-552) was purchased from Upstate Ltd., Dundee, UK. The peptide substrate, Fluorescein-AKRRRLSSLRA-COOH, was obtained from JPT Peptide Technologies, Berlin, Germany. Adenosine-5′-triphosphate (ATP), bovine serum albumine (BSA), dimethylsulphoxide (DMSO), 4-(2-Hydroxyethyl)piperazine-1-ethanesulfonic acid (Hepes), Brij-35 and dithiothreitol (DTT) were purchased from Sigma-Aldrich, Munich, Germany. Tris(hydroxymethyl)-aminomethane (Tris), magnesium chloride, NaOH, 1M HCl and EDTA were obtained from Merck Biosciences, Darmstadt, Germany. “Complete” protease inhibitor was from Roche Diagnostics, Mannheim, Germany.
Test compounds were diluted to the appropriate concentrations in buffer 1 (25 mM Tris-HCl, pH 7.4, 5 mM MgCl2, 2 mM DTT, 0.02% (w/v) BSA and 3% DMSO). The ROCK II enzyme was diluted to a concentration of 100 ng/ml in buffer 2 (25 mM Tris-HCl, pH 7.4, 5 mM MgCl2, 2 mM DTT and 0.02% (w/v) BSA). The peptide substrate and ATP were diluted to concentrations of 3 μM and 120 μM, respectively, in the buffer 2. Two μl of the compound solution were mixed with 2 μl of the diluted enzyme in a 384-well small volume microtiter plate (Greiner, Bio-One, Frickenhausen, Germany), and the kinase reaction was initiated by addition of 2 μl of the solution containing peptide substrate and ATP. After 60 min incubation at 32° C., the reaction was stopped by addition of 20 μl of a solution containing 100 mM Hepes-NaOH, pH 7.4, 0.015% (v/v) Brij-35, 45 mM EDTA and 0.227% chip coating reagent 1 (Caliper Lifescience Inc, Hopkinton, Mass.). Phosphorylation of the substrate peptide was then detected on a Caliper 3000 instrument essentially as described by Pommereau et al (J. Biomol. Screening 9(5), 409-416, 2004). Separation conditions were as follows: Pressure −1.3 psi, upstream voltage −1562 V, downstream voltage −500 V, sample sip time 200 ms. Positive controls (buffer 1 instead of compound) and negative controls (buffer 1 instead of compound and buffer 2 instead of ROCK II) were run in parallel on each plate.
The following products/compounds were tested in said assay by using the respective form (salt or free base) obtained as in the examples described above and the following activities were measured.

T1 sequence (O75116 11-552): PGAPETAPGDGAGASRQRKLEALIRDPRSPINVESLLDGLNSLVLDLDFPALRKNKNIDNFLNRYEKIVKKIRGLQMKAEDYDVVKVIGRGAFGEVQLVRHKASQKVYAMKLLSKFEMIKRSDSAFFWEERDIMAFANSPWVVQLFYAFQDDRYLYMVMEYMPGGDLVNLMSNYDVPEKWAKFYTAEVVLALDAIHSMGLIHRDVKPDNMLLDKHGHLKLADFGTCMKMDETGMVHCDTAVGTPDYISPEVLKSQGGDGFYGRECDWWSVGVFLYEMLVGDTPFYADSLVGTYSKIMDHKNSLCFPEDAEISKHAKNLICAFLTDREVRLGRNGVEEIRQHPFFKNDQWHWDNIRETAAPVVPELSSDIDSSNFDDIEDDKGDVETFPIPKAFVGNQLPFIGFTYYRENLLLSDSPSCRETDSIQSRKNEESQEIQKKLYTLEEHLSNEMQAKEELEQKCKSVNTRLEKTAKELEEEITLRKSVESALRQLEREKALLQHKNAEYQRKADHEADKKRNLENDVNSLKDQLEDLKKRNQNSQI

Question: With `CCCN[C@H]1CC[C@@H](Nc2ccc3c(=O)[nH]ccc3c2)CC1` [Compound 47, 6-cis-(4-Propyl-amino-cyclohexyl-amino)-2H-iso-quinolin-1-one] as the compound, how does the IC50 read?
Answer: Its IC50 is ≤ 1000 nM.

Question: For `CCCN(CCC)[C@H]1CC[C@@H](Nc2ccc3c(=O)[nH]ccc3c2)CC1` [Compound 46, 6-cis-(4-Dipropyl-amino-cyclohexyl-amino)-2H-iso-quinolin-1-one], which IC50 is on record?
Answer: Its IC50 is 1000 to 10000 nM.

Question: How did the IC50 turn out when `CCN(CC)[C@H]1CC[C@@H](Nc2ccc3c(=O)[nH]ccc3c2)CC1` [Compound 44, 6-cis-(4-Diethyl-amino-cyclohexyl-amino)-2H-iso-quinolin-1-one] was run?
Answer: Its IC50 is 1000 to 10000 nM.

Question: Which IC50 does the source give for `O=c1[nH]ccc2cc(N[C@H]3CC[C@@H](N(C4CC4)C4CC4)CC3)ccc12` [Compound 54, 6-cis-(4-Dicyclo-propyl-amino-cyclohexyl-amino)-2H-isoquinolin-1-one] here?
Answer: Its IC50 is ≤ 1000 nM.

Question: For `N[C@H]1CCCC[C@H]1Nc1ccc2c(=O)[nH]ccc2c1` (relative stereo) [Compound 40, 6-cis-(2-Amino-cyclohexyl-amino)-2H-isoquinolin-1-one], which IC50 is on record?
Answer: The IC50 was ≤ 1000 nM.

Question: Which IC50 does the source give for `O=c1[nH]ccc2cc(N[C@H]3CC[C@@H](NCc4ccc(Cl)cc4)CC3)ccc12` [Compound 51, 6-cis-[4-(4-Chloro-benzylamino)-cyclohexyl-amino]-2H-isoquinolin-1-one] here?
Answer: Its IC50 is 1000 to 10000 nM.

Question: With `N[C@H]1CC[C@H](Nc2ccc3c(=O)[nH]ccc3c2)CC1` [Compound 36, 6-trans-(4-Amino-cyclohexyl-amino)-2H-isoquinolin-1-one] as the compound, how does the IC50 read?
Answer: The IC50 was ≤ 1000 nM.

Question: With `O=c1[nH]ccc2cc(N[C@H]3CC[C@@H](NCc4ccccc4)CC3)ccc12` [Compound 48, 6-cis-(4-Benzyl-amino-cyclohexyl-amino)-2H-iso-quinolin-1-one] as the compound, how does the IC50 read?
Answer: The IC50 was 1000 to 10000 nM.

Question: Which IC50 does the source give for `O=c1[nH]ccc2cc(N[C@H]3CC[C@@H](NC4CC4)CC3)ccc12` [Compound 53, 6-cis-(4-Cyclopropyl-amino-cyclo-hexylamino)-2H-isoquinolin-1-one] here?
Answer: The IC50 was ≤ 1000 nM.

Question: For `O=c1[nH]ccc2cc(N[C@H]3CC[C@@H](NCC4CCNCC4)CC3)ccc12` [Compound 52, 6-cis-{4-[(Piperidin-4-ylmethyl)-amino]-cyclohexyl-amino}-2H-isoquinolin-1-one], which IC50 is on record?
Answer: The IC50 was ≤ 1000 nM.

Question: How did the IC50 turn out when `N[C@H]1CC[C@@H](Sc2cc3ccncc3cc2Br)CC1` [Compound 62, cis-4-(7-Bromo-isoquinolin-6-ylsulfanyl)-cyclohexylamine hydrochloride] was run?
Answer: The IC50 was ≤ 1000 nM.

Question: Which IC50 does the source give for `NC1CCCC(Nc2ccc3c(=O)[nH]ccc3c2)C1` (centres unmarked) [Compound 41, 6-(3-Amino-cyclohexylamino)-2H-isoquinolin-1-one] here?
Answer: Its IC50 is ≤ 1000 nM.

Question: For `CC(C)N[C@H]1CC[C@@H](Nc2ccc3c(=O)[nH]ccc3c2)CC1` [Compound 49, 6-cis-(4-Isopropyl-amino-cyclohexyl-amino)-2H-iso-quinolin-1-one], which IC50 is on record?
Answer: Its IC50 is 1000 to 10000 nM.

Question: How did the IC50 turn out when `O=c1[nH]ccc2cc(N[C@H]3CC[C@@H](NCc4cccc(Cl)c4)CC3)ccc12` [Compound 50, 6-cis-[4-(3-Chloro-benzylamino)-cyclohexyl-amino]-2H-isoquinolin-1-one] was run?
Answer: The IC50 was 1000 to 10000 nM.

Question: How did the IC50 turn out when `N[C@H]1CC[C@@H](Sc2cc3cc[nH]c(=O)c3cc2Cl)CC1` [Compound 64, 6-cis-(4-Amino-cyclohexylsulfanyl)-7-chloro-2H-isoquinolin-1-one] was run?
Answer: The IC50 was ≤ 1000 nM.

Question: `CCN[C@H]1CC[C@@H](Nc2ccc3c(=O)[nH]ccc3c2)CC1` [Compound 45, 6-cis-(4-ethylamino-cyclohexylamino)-2H-isoquinolin-1-one] was tested. Which IC50 did it give?
Answer: The IC50 was ≤ 1000 nM.

Question: With `N[C@H]1CC[C@@H](Sc2cc3ccncc3cc2Cl)CC1` [Compound 61, cis-4-(7-Chloro-isoquinolin-6-ylsulfanyl)-cyclohexylamine] as the compound, how does the IC50 read?
Answer: Its IC50 is ≤ 1000 nM.
